Results as given in ChEMBL document CHEMBL3045294, “Synthesis, anticonvulsant and toxicity screening of thiazolylthiadiazole derivatives” (Med Chem Res, 2011).
Active and inactive are the calls of the source. The calls are words filed in the database; no cut-off is given here.

Experiments:
[1] = organism: Mus musculus; assay: Protective index, ratio of TD50 for Mus musculus albino (mouse) to ED50 for Mus musculus albino (mouse) by maximal electroshock-induced seizures test; type: functional
[2] = test system: Mus musculus; assay: Protective index, ratio of TD50 for Mus musculus albino (mouse) to ED50 for Mus musculus albino (mouse) by subcutaneous pentylenetetrazol-induced seizures test; type: functional
[3] = test system: Mus musculus; assay: Anticonvulsant activity in ip dosed Mus musculus albino (mouse) assessed as protection against subcutaneous pentylenetetrazol-induced seizures; type: functional
[4] = test system: Mus musculus; assay: Anticonvulsant activity in ip dosed Mus musculus albino (mouse) assessed as protection against maximal electroshock-induced seizures; type: functional
[5] = (§1) Neurotoxicity in ip dosed Mus musculus albino (mouse) after 4 hr rotorod test; type: toxicity, organism-based; settings: albino, in vivo
[6] = (§2) Neurotoxicity in ip dosed Mus musculus albino (mouse) after 0.5 hr rotorod test; type: toxicity, organism-based; settings: albino, in vivo
[7] = test system: Mus musculus; assay: Anticonvulsant activity in Mus musculus albino (mouse) assessed as protection against maximal electroshock-induced seizures at 300 mg/kg, ip after 4 hr; type: functional, organism-based; design: dose 300 mg/kg
[8] = test system: Mus musculus; assay: Anticonvulsant activity in Mus musculus albino (mouse) assessed as protection against maximal electroshock-induced seizures at 300 mg/kg, ip after 0.5 hr; type: functional, organism-based; design: dose 300 mg/kg
[9] = test system: Mus musculus; assay: Anticonvulsant activity in ip dosed Mus musculus albino (mouse) assessed as protection against subcutaneous pentylenetetrazol-induced seizures after 0.5 hr; type: functional; settings: read-out: MED
[10] = test system: Mus musculus; assay: Anticonvulsant activity in ip dosed Mus musculus albino (mouse) assessed as protection against subcutaneous pentylenetetrazol-induced seizures after 4 hr; type: functional; settings: read-out: MED
[11] = test system: Mus musculus; assay: as §1; type: toxicity, organism-based; settings: in vivo, 4 h
[12] = test system: Mus musculus; assay: as §2; type: toxicity, organism-based; settings: in vivo, 0.5 h
[13] = test system: Mus musculus; assay: Anticonvulsant activity in ip dosed Mus musculus albino (mouse) assessed as protection against maximal electroshock-induced seizures after 4 hr; type: functional; settings: read-out: MED
[14] = test system: Mus musculus; assay: Anticonvulsant activity in ip dosed Mus musculus albino (mouse) assessed as protection against maximal electroshock-induced seizures after 0.5 hr; type: functional; settings: read-out: MED
[15] = test system: Mus musculus; assay: Anticonvulsant activity in Mus musculus albino (mouse) assessed as protection against subcutaneous pentylenetetrazol-induced seizures at 300 mg/kg, ip after 0.5 hr; type: functional, organism-based; design: dose 300 mg/kg
[16] = test system: Mus musculus; assay: Anticonvulsant activity in Mus musculus albino (mouse) assessed as protection against subcutaneous pentylenetetrazol-induced seizures at 300 mg/kg, ip after 4 hr; type: functional, organism-based; design: dose 300 mg/kg
[17] = test system: Mus musculus; assay: Hepatoxicity in Mus musculus albino (mouse) assessed as effect on SGOT level in serum at 3 to 30 mg/kg, ip; type: toxicity, organism-based; design: dose 3-30 mg/kg, route intraperitoneal; settings: in vivo
[18] = test system: Mus musculus; assay: Hepatoxicity in Mus musculus albino (mouse) assessed as effect on SGPT level in serum at 3 to 30 mg/kg, ip; type: toxicity, organism-based; design: dose 3-30 mg/kg, route intraperitoneal; settings: in vivo
[19] = test system: Mus musculus; assay: Hepatoxicity in Mus musculus albino (mouse) assessed as effect on alkaline phosphatase level in serum at 3 to 30 mg/kg, ip; type: toxicity, organism-based; design: dose 3-30 mg/kg, route intraperitoneal; settings: in vivo

SMILES	Ratio TD50/ED50 [1]	Ratio TD50/ED50 [2]	ED50 [3] [mg/kg]	ED50 [4] [mg/kg]	MTD at 4 h [5] [mg/kg]	MTD at 0.5 h [6] [mg/kg]	TD50 at 0.5 h [6] [mg/kg]	Activity [7]	Activity [8]	minimal effective dose [9] [mg/kg]	minimal effective dose [10] [mg/kg]	MTC [11] [mg/kg]	MTC [12] [mg/kg]	minimal effective dose [13] [mg/kg]	minimal effective dose [14] [mg/kg]	Activity [15]	Activity [16]	Activity [17]	Activity [18]	Activity [19]
CCC1(C)CC(=O)NC1=O (stereo unspecified) [ETHOSUXIMIDE]	8.1	<0.2	> 100	8.8	300	300	71.6	inactive	inactive	100	300									
Cc1ccccc1Nc1nnc(Nc2nc(-c3ccc([N+](=O)[O-])cc3)cs2)s1											300	300	100	100	100	inactive				
COc1ccccc1Nc1nnc(Nc2nc(-c3ccc(Br)cc3)cs2)s1								inactive			300	100	300		300	inactive				
Clc1ccc(-c2csc(Nc3nnc(Nc4ccccc4)s3)n2)cc1					300	300			inactive					300		inactive	inactive			
Brc1ccc(-c2csc(Nc3nnc(Nc4ccccc4)s3)n2)cc1								inactive				300	300		300	inactive	inactive			
c1ccc(Nc2nnc(Nc3nc(-c4ccccc4)cs3)s2)cc1						300		inactive			100	300			300	inactive				
COc1ccc(Nc2nnc(Nc3nc(-c4ccccc4)cs3)s2)cc1					300						300		300	100	100	inactive				
COc1ccc(Nc2nnc(Nc3nc(-c4ccc(Cl)cc4)cs3)s2)cc1					300	300				100	300			300	100					
CCC1(c2ccccc2)C(=O)NC(=O)NC1=O [PHENOBARBITAL]			13.2	21.8								300	100	30	100	inactive	inactive			
COc1ccc(Nc2nnc(Nc3nc(-c4ccc([N+](=O)[O-])cc4)cs3)s2)cc1	43.6	1.2	433	12.6	300	300	550				100			30	30	inactive		Toxic	Toxic	Toxic
COc1ccccc1Nc1nnc(Nc2nc(-c3ccc([N+](=O)[O-])cc3)cs2)s1					300						300		300	300	300	inactive				
Cc1ccc(Nc2nnc(Nc3nc(-c4ccc(Cl)cc4)cs3)s2)cc1					300	300					300			100	300	inactive				
COc1ccccc1Nc1nnc(Nc2nc(-c3ccccc3)cs2)s1					300	300				100	300			300	100					
COc1ccccc1Nc1nnc(Nc2nc(-c3ccc(Cl)cc3)cs2)s1									inactive		100	300	300	300		inactive				
Cc1ccccc1Nc1nnc(Nc2nc(-c3ccccc3)cs2)s1						300		inactive				300			300	inactive	inactive			
O=C1NC(=O)C(c2ccccc2)(c2ccccc2)N1 [PHENYTOIN]			> 300									100	100	30	30	inactive	inactive			
Cc1ccc(Nc2nnc(Nc3nc(-c4ccc([N+](=O)[O-])cc4)cs3)s2)cc1	11.3	0.9	232	19.1	300	300	216			300				100	30		inactive	Toxic	Toxic	Toxic
Cc1ccc(Nc2nnc(Nc3nc(-c4ccccc4)cs3)s2)cc1					300	300				300				100	100		inactive			
O=[N+]([O-])c1ccc(-c2csc(Nc3nnc(Nc4ccccc4)s3)n2)cc1					300			inactive					100		100	inactive	inactive			
Cc1ccc(Nc2nnc(Nc3nc(-c4ccc(Br)cc4)cs3)s2)cc1										300	300	300	300	100	100					
CCCC(CCC)C(=O)O [VALPROIC ACID]			149																	
COc1ccc(Nc2nnc(Nc3nc(-c4ccc(Br)cc4)cs3)s2)cc1	25.8	8.9	79.4	27.6	300	300	713			100				100	30		inactive	Toxic	Toxic	Toxic
Cc1ccccc1Nc1nnc(Nc2nc(-c3ccc(Br)cc3)cs2)s1					300						300		100	300	300	inactive				
Cc1ccccc1Nc1nnc(Nc2nc(-c3ccc(Cl)cc3)cs2)s1					300	300								300	300	inactive	inactive			
